Experimental data published in patent publication US6469028B1, “Synthesis and use of retinoid compounds having negative hormone and/or anatgonist activities” (Allergan, Inc., priority 1995, dated 2002).

Assays:
RAR-γ-VP-16 = experiment: Example 12: assay for retinoid negative hormones, CV-1 cells; type: cell-based; details: 10^−9 to 10^−6 M, 18 hours, no agonist
RARα = biological target: T1, RARα (Homo sapiens, UniProt P10276); experiment: Holoreceptor transactivation assay; type: cell-based; design: expressed in transfected cells; host or cells: CV1 cells; details: relative to all trans retinoic acid; read-out: Transactivation Assay Efficacy (% of RA activity) RARα
T1 sequence (P10276 1-462): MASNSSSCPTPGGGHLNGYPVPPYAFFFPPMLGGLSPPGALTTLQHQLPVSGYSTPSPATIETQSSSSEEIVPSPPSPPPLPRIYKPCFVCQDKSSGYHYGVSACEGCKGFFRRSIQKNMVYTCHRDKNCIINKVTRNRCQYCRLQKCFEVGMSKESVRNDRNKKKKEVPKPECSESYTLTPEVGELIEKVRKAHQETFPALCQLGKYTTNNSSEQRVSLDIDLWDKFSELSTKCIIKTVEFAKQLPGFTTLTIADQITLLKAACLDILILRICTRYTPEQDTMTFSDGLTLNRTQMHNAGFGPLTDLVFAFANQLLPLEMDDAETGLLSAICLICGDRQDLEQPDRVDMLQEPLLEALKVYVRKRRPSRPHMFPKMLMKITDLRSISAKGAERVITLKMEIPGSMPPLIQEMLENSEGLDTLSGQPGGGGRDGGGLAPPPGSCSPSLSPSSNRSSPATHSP
Text: (§1) A holoreceptor transactivation assay and a ligand binding assay which measure the antagonist/agonist like activity of the compounds of the invention, or their ability to bind to the several retinoid receptor subtypes, respectively, are described in published PCT Application No. WO93/11755 (particularly on pages 30-33 and 37-41) published on Jun. 24, 1993, the specification of which is also incorporated herein by reference. A description of the holoreceptor transactivation assay is also provided below.
(§2) CV1 cells (5,000 cells/well) were transfected with an RAR reporter plasmid MTV-TREp-LUC (50 ng) along with one of the RAR expression vectors (10 ng) in an automated 96-well format by the calcium phosphate procedure of Heyman et al. Cell 68: 397-406. For RXR-α and RXR-γ transactivation assays, an RXR-responsive reporter plasmid CRBPII-tk-LUC (50 ng) along with the appropriate RXR expression vectors (10 ng) was used substantially as described by Heyman et al. above, and Allegretto et al. J. Biol. Chem. 268: 26625-26633. For RXR-β transactivation assays, an RXR-responsive reporter plasmid CPRE-tk-LUC ([…]) along with RXR-β expression vector ([…]) was used as described in above. These reporters contain DRI elements from human CRBPII and certain DRI elements from promotor, respectively (see Mangelsdorf et al. The Retinoids: Biology Chemistry and Medicine, pp. 319-349, Raven Press Ltd., New York and Heyman et al., cited above). A β-galactosidase (50 ng) expression vector was used as an internal control in the transfections to normalize for variations in transfection efficiency. The cells were transfected in triplicate for 6 hours, followed by incubation with retinoids for 36 hours, and the extracts were assayed for luciferase and […] activities. The detailed experimental procedure for holoreceptor transactivations has been described in Heyman et al. above, and Allegretto et al. cited above. The results obtained in this assay are expressed in EC50 numbers, as they are also in the chimeric receptor transactivation assay. The Heyman et al. Cell 68: 397-406, Allegretto et al. J. Biol. Chem. 268: 26625-26633, and Mangelsdorf et al. The Retinoids: Biology, Chemistry, and Medicine, pp. 319-349, Raven Press Ltd., New York, are expressly incorporated herein by reference. The results of ligand binding assay are expressed in Kd numbers. (See Cheng et al. Biochemical Pharmacology 22: 3099-3108, expressly incorporated herein by reference.)
(§3) A compound should not cause significant activation of a reporter gene through a given receptor subtype (RAR-α, RAR-β or RAR-γ) in the holoreceptor transactivation assay, in order to qualify as an RAR antagonist with utility in the present invention.

RARβ = biological target: T2, RARβ (Homo sapiens, UniProt P10826); experiment: Holoreceptor transactivation assay; type: cell-based; design: expressed in transfected cells; host or cells: CV1 cells; details: relative to all trans retinoic acid; read-out: Transactivation Assay Efficacy (% of RA activity) RARβ
T2 sequence (P10826 1-448 isoform P10826-2): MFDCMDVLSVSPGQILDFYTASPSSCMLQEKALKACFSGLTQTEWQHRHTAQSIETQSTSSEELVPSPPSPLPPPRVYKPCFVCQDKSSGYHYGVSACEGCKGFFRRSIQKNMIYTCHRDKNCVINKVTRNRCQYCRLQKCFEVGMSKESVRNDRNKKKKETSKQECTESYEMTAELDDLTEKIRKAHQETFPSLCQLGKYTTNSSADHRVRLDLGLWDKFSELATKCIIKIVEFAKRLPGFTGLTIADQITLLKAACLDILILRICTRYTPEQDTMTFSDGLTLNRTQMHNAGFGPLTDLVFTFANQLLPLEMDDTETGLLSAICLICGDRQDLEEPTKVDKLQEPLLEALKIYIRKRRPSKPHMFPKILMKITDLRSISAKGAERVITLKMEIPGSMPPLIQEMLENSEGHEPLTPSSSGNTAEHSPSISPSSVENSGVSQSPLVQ
Text: as §1, §2, §3

RARγ [1] = biological target: T3, RARγ (Homo sapiens, UniProt P13631); experiment: Holoreceptor transactivation assay; type: cell-based; design: expressed in transfected cells; host or cells: CV1 cells; details: relative to all trans retinoic acid; read-out: Transactivation Assay Efficacy (% of RA activity) RARγ
T3 sequence (P13631 1-454): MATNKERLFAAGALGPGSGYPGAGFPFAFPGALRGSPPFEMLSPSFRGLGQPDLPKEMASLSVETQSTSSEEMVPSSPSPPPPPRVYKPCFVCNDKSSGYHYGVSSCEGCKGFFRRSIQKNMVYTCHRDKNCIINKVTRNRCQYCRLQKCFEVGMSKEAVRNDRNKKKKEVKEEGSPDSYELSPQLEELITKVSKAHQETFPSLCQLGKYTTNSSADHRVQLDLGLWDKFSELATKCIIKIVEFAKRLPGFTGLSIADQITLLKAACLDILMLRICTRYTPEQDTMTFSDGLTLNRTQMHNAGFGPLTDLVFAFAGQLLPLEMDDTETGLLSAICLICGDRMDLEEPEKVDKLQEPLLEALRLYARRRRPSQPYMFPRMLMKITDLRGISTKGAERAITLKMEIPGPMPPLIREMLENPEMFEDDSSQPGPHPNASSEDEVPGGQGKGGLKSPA
Text: as §1, §2, §3

RARγ [2] = biological target: T3, RARγ; experiment: [3H]-ATRA displacement assay, baculovirus expressed receptor; type: binding; design: made in house; host or cells: baculovirus expression system
[3] = Table 12, relative affinity, competition of 3H-ATRA binding, Cheng-Prussof equation

| SMILES | Emax (RARα) [%] | Emax (RARβ) [%] | Emax (RARγ [1]) [%] | Kd (RARγ [2]; [3]) [nM] | RAR-γ-VP-16 constitutive activity (negative hormone activity) (RAR-γ-VP-16) | Kd (RARγ [2]; Table 11) [nM] |
| --- | --- | --- | --- | --- | --- | --- |
| CC1(C)CC=C(c2ccc(C(F)(F)F)cc2)c2cc(C#Cc3ccc(C(=O)O)cc3)ccc21 [Compound 23, 4-[(5,6-Dihydro-5,5-dimethyl-8-(4-trifluoromethylphenyl)-2-naphthalenyl)ethynyl]benzoic acid] | 0 | 6 | 3 | 25 | dose dependent repression of RAR-γ-VP-16 constitutive activity | – |
| CC1(C)CC=C(c2ccc(Cl)cc2)c2cc(C#Cc3ccc(C(=O)O)cc3)ccc21 [Compound 25, 4-[(5,6-Dihydro-5,5-dimethyl-8-(4-chlorophenyl)-2-naphthalenyl)ethynyl]benzoic acid] | 2 | 3 | 3 | 13 | dose dependent repression of RAR-γ-VP-16 constitutive activity | – |
| CC(/C=C/C=C(\C)c1ccc2c(c1)C(c1ccc(C)cc1)=CCC2(C)C)=C\C(=O)O [Compound 52, (E,E,E)-3-methyl-7-(5,6-dihydro-5,5-dimethyl-8-(4-methylphenyl)-2-naphthalenyl)-2,4,6-octatrienoic acid] | 0 | 15 | 3 | – | – | – |
| Cc1ccc(C2=CCC(C)(C)c3ccc(C#Cc4ccc(C(=O)O)cc4)cc32)cc1 [Compound 60, 4-[(5,6-dihydro-5,5-dimethyl-8-(4-methylphenyl)-2-naphthalenyl)ethynyl]benzoic acid] | 0 | 1 | 4 | 6 | dose dependent repression of RAR-γ-VP-16 constitutive activity | 3 |

Continued, in another order:

| Emax (RARα) [%] | Emax (RARβ) [%] | Emax (RARγ [1]) [%] | Kd (RARγ [2]; [3]) [nM] | SMILES | RAR-γ-VP-16 constitutive activity (negative hormone activity) (RAR-γ-VP-16) | Kd (RARγ [2]; Table 11) [nM] |
| --- | --- | --- | --- | --- | --- | --- |
| 2 | 2 | 0 | – | CC(C)(C)c1ccc(C2=CCC(C)(C)c3ccc(C#Cc4ccc(C(=O)O)cc4)cc32)cc1 [Compound 61, 4-[(5,6-Dihydro-5,5-dimethyl-8-(4-(1,1-dimethylethyl)phenyl)-2-naphthalenyl)ethynyl]benzoic acid] | – | – |
| 2 | 2 | 7 | – | Cc1ccc(C2=CCC(C)(C)c3ccc(C(=S)Nc4ccc(C(=O)O)c(F)c4)cc32)cc1 [Compound 63, 2-fluoro-4-[[(5,6-dihydro-5,5-dimethyl-8-(4-methylphenyl)-2-naphthalenyl)thiocarbonyl]amino]-benzoic acid] | – | – |
| 0 | 4 | 2 | – | Cc1ccc(C2=CCC(C)(C)c3cc(C(=O)C=Cc4ccc(C(=O)O)cc4)ccc32)cc1 [Compound 101, 4-[3-oxo-3-(7,8-dihydro-5-(4-methylphenyl)-8,8-dimethyl-2-naphthalenyl)-1-propenyl]-benzoic acid] | – | – |
| 4 | 12 | 7 | – | CC1(C)CC=C(c2ccccc2)c2ccc(C(=O)C=Cc3ccc(C(=O)O)cc3)cc21 [Compound 103, 4-[3-oxo-3-(7,8-dihydro-5-phenyl-8,8-dimethyl-2-naphthalenyl)-1-propenyl]-benzoic acid] | – | – |
